Data published in patent US20110195924A1, “Methods of Inhibiting the Interaction Between S100P and the Receptor for Advanced Glycation End-Products” (priority 2008, published 2011).
“Also recorded” adds a separate entry of the source.

Key:
Panc-1 cells [1] = experiment: Panc-1 cell proliferation (MTS); assay type: cell-based; conditions: Panc-1
Procedure: Panc-1 pancreatic adenocarcinoma cells (1.0×10^3 cells/well) were cultured in the presence or absence of S100P (100 nM) and with or without cromolyn (100 μM), and cell proliferation was analyzed at 24, 48, and 72 hours. Means and 95% confidence intervals of three independent experiments performed in triplicate are shown. *, P=0.001, S100P alone versus S100P+cromolyn.
Panc-1 cells were plated at 1.0×10^3 cells/well and treated with platelet-derived growth factor (10 ng/mL) with or without cromolyn (100 μM), and cell proliferation was analyzed after 48 hours. Means and 95% confidence intervals of three independent experiments performed in triplicate are shown. *, P=0.004 PDGF and P=0.022 cromolyn+PDGF versus control.
Growth of Panc-1 and BxPC3 pancreatic adenocarcinoma cells was analyzed using MTS reagent (Promega, Madison, Wis.) according to the manufacturer's directions. Purified S100P (100 nM final concentration) with or without cromolyn (100 μM final concentration) was added to Panc-1 cells. Only cromolyn (0-100 μM) was added to BxPC-3 cells, which express endogenous S100P. For both cell models, 1.0×10^3 cells/well were plated in 96-well culture dishes. Cells were treated with S100P, PDGF, or cromolyn, or a combination, followed immediately by treatment with either S100P or PDGF. MTS (20 μL per well) was added to cells at various times, and the mixture was incubated for 1 hour at 37° C. Samples were then read at 490 nm (as O.D. units) on a uQuant-Microplate Spectrophotometer (Bio-Tek Services Inc., Richmond, Va.). The assay was performed three times in triplicate.

S100P binding with RAGE = molecular target: T1, S100P binding with RAGE (Homo sapiens, UniProt P25815); experiment: ELISA of S100P binding to RAGE (sRAGE coated plate); conditions: analogs at 10-fold lower concentration than cromolyn
T1 construct: full-length human S100P cDNA (NM_005980) was cloned into the pTrcHis2 vector; His; made in house; host or cells: bacteria (S100P)
T1 sequence (P25815 1-95): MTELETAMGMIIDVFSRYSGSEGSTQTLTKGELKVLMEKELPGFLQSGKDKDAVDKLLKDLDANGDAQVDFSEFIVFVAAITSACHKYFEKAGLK
Procedure: After removing un-bound S100P by washing with detergent, the bound S100P and RAGE complex was quantified by adding HRP labeled antibody against S100P. *, P=0.04 C5 1 μM versus cromolyn 5 μM. Two-tailed two-sample (unpaired) Student's t-tests were used to determine P values.
The plate was washed and the amount of bound S100P was quantitated using anti-S100P antibody.
The binding of S100P to RAGE was determined using an ELISA assay. sRAGE was attached to the dish and recombinant S100P (50 ng) was added with or without the indicated concentrations of cromolyn analogs. The plate was washed and the amount of bound S100P was quantitated using anti-S100P antibody.

pancreatic cancer cells = experiment: Apoptosis of pancreatic cancer cells with cromolyn analogs and cytotoxic drugs; assay type: cell-based
Procedure: (§1) Various cromolyn-based analogs were developed. The effects of the analogs on binding of S100P with RAGE were evaluated for the analogs using a sandwich ELISA. The effectiveness of the analogs to block cancer cell proliferatin and increase apoptosis in vitro were analyzed with and without cisplatin, 5-flurouracil and gemcitabine by MTS and FACS analysis. We also examined the ability of the analogs to inhibit S100P activation of NFkB signaling in cancer cells in vitro and in vivo. Finally, the effects of the novel analogs on tumor growth in vivo was evaluated. One analog, C5OH is shown below:
In this in vitro study, pancreatic cancer cells were treated with gemcitabine alone or in the presence of cromolyn analogs. The cromolyn analogs themselves have very little effect on the rates of cellular apoptosis, supporting their absence of general toxicity. However, all cromolyn analogs increased the killing of pancreatic cancer cells by gemcitabine.

MPanc96 tumors = experiment: MPanc96 pancreatic tumor growth and survival in mice (analogs); assay type: in vivo
Procedure: as §1
Animals were implanted with MPanc96 cells, a gemcitabine resistant model of pancreatic cancer, and then treated with gemcitabine, C5OH, or the combination. […] Noteworthy, the addition of the hydroxyl group to the carbon chain in C5 allows easy modifications of this molecule. The hydroxyl can be substituted with fluoride that can be labeled for in vivo PET imaging. This hydroxyl can also be used to develop a pro-drug form of C5 by attaching other components with an ester bond.

NFkB activity = experiment: S100P induced NFkB activity in cancer cells (analogs); assay type: cell-based
Procedure: as §1, with “evaluated.” for “evaluated. One analog, C5OH is shown below:”

Panc-1 cells [2] = experiment: Panc-1 matrigel invasion assay; assay type: cell-based; conditions: Panc-1; S100P 100 nM alone, 24 hours
Procedure: FIGS. 2A-2D show the effect of cromolyn on pancreatic cancer cell invasion. Panc-1 and BxPC-3 cells were plated in Bio-coat matrigel and control chambers and cultured in serum-free culture media. After 24 hours non-invaded cells in the upper chamber were removed, and cells that invaded onto the lower surface of the membrane were counted from five adjacent fields. […] Data are expressed as the percent invasion through the matrigel matrix and membrane relative to migration through the control membrane. Means and 95% confidence intervals from three independent experiments performed in triplicate are shown. Two-tailed two-sample (unpaired) Student's t-tests were used to determine P values.
Panc-1 and BxPC-3 cells were seeded in BIOCOAT matrigel invasion chambers and in control chambers without matrigel (Becton-Dickinson, Bedford, Mass.) according to the manufacturer's protocol. Panc-1 cells were seeded with S100P (100 nM) with or without cromolyn (100 μM), and BxPC-3 cells were seeded with or without cromolyn (1-100 μM). Briefly, 2.0×10^5 cells in 300 μL top solution (serum-free media) were added to each chamber and allowed to invade matrigel for 24 hours at 37° C. in a 5% CO2 atmosphere. The non-invading cells on the upper surface of membrane were removed from the chambers with a cotton swab, and the invading cells on the lower surface of the membrane were fixed and stained using a Diff-Quick stain kit (Becton Dickinson, Bedford, Mass.). After two washes with water, the chambers were allowed to air dry. The numbers of invading cells in five adjacent microscope fields per membrane were counted at 20× magnification to obtain the average number of cells per field. Data are expressed as the percent invasion through the matrigel matrix and membrane relative to the migration through the control membrane. The assays were performed three times.

NFκB promoter activity = experiment: NFκB luciferase reporter assay in Panc-1 cells; assay type: cell-based; conditions: 5 hours
Procedure: FIGS. 3A, 3B, and 3C show the effect of cromolyn on S100P stimulated NFκB promoter activity in pancreatic cancer cells in vitro and in vivo. Panc-1 and BxPC-3 pancreatic cancer cell lines stably expressing an NFκB luciferase reporter were examined for the effects of S100P and cromolyn. […] Means and 95% confidence intervals are shown for three independent experiments performed in triplicate. *, P=0.022, †, P<0.001, and P<0.001 versus control; #, P=0.005 versus 100 nM S100P alone. […] Means and 95% confidence intervals are shown for three independent experiments performed in triplicate. *, P=0.003, †, P<0.001 versus control. […] After 1 week, tumor growth was assessed and NFκB activity was analyzed using an IVIS system (Xenogen Corp., Alameda, Calif.) after injecting mice with D-luciferin (150 mg per kg body weight) (0 time point). The mice were treated with cromolyn (5 mg per kg body weight by intraperitoneal injection), and NFκB luciferase activity was analyzed again at 24 and 48 hours. *, P=0.005 versus control. Means and 95% confidence intervals are shown for two independent experiments (n=4 mice per group). Two-tailed two-sample (unpaired for in vitro and paired for in vivo studies) Student's t-tests were used to determine P values.
To study pancreatic cancer cell NFκB activity, a lentivirus NFκB luciferase reporter gene construct was developed. The NFκB luciferase reporter gene was excised and isolated from the pNF-κB-Luc Vector (Clonetec, Mountain View, Calif.) and cloned into the lentiviral vector FG9 (Gift from Dr. Xiao-Feng Qin, Dept. of Immunology, M.D. Anderson Cancer Center replacing the CMV/LTR and UBiC promoters, to form Lenti-NFκB-Luc. Lentiviral NFκB vector were co-transfected with packaging constructs pRSVREV, pMDLg/pRRE, and the VSV-G expression plasmid pHCMVG, and lentivirus was produced in 293T cells by the calcium transfection method, as previously described in Qin, et al., Inhibiting HIV-1 infection in human T cells by lentiviral-mediated delivery of small interfering RNA against CCR5; Proc. Natl. Acad. Sci. U.S.A. 2003 Jan. 7; 100(1):183-8. […] Functional validation of NFκB reporter activity was conducted in vitro using TNF-α (20 ng/mL, Sigma, St. Louis, Mo.) as a positive control.
BxPC-3 and Panc-1 cells stably expressing a Lenti-NFkB-luc reporter construct were treated with S100P, cromolyn, or the combination for 5 hours. D-luciferin (150 μg/mL) was added to the cells, and luciferase activity was measured using an IVIS bioluminescence system (Xenogen Co. Alameda, Calif.). Each experiment was conducted three times in triplicate.

[3] = MPanc96, gemcitabine resistant model, to a greater extent than gemcitabine

Molecule: PDGF
- cell proliferation, difference versus control (Panc-1 cells [1]; PDGF 10 ng/mL, 48 hours): 0.2 MTS units
- cell proliferation, mean (Panc-1 cells [1]; PDGF 10 ng/mL, 48 hours, control mean 0.5): 0.7 MTS units

Molecule: O=C([O-])c1cc(=O)c2c(OCCC(O)CCOc3cccc4oc(C(=O)[O-])cc(=O)c34)cccc2o1.[Na+].[Na+] [C5OH]
- potency in blocking S100P binding to RAGE relative to cromolyn or C5 (S100P binding with RAGE): nearly equally potent and more efficient than cromolyn; also recorded: at least as effective as the C5-analog
- cancer cell apoptosis in response to various cytoxic treatments, relative to cromolyn (pancreatic cancer cells): at lesser concentrations and to a greater extent than did cromolyn
- killing of pancreatic cancer cells by gemcitabine (pancreatic cancer cells; with gemcitabine, C5 and C5OH at 10-fold lower concentration than cromolyn): worked equally well
- survival of mice with pancreatic tumors (MPanc96 tumors; [3]): prolongs survival
- tumor growth (MPanc96 tumors; [3]): reduces tumor growth
- effects relative to gemcitabine (MPanc96 tumors; MPanc96 model): superior to those of gemcitabine
- inhibition of tumor growth and survival in vivo, relative to cromolyn (MPanc96 tumors; mouse, in vivo): superior to cromolyn
- inhibition of S100P induced NFkB activity relative to cromolyn (NFkB activity): more potently and effectively than did cromolyn

B1: S100P: purified His-tagged full-length human S100P protein, 95-amino acid member of the S100 family (protein, UniProt P25815 1-95, looked up)
Protein S100-P: MTELETAMGMIIDVFSRYSGSEGSTQTLTKGELKVLMEKELPGFLQSGKDKDAVDKLLKDLDANGDAQVDFSEFIVFVAAITSACHKYFEKAGLK
modifications: His tag
notes: purified His-tagged full-length human S100P protein, 95-amino acid member of the S100 family
- cell proliferation, mean (Panc-1 cells [1]; S100P 100 nM alone): 0.93 MTS units
- cells invaded, mean (Panc-1 cells [2]): 58.0%
- NFκB promoter activity, difference versus 0 nM (NFκB promoter activity; S100P 1 nM): 3544 photons/sec
- NFκB promoter activity, mean (NFκB promoter activity; S100P 1 nM, 0 nM mean 3358): 6902 photons/sec
- NFκB promoter activity, difference versus 0 nM (NFκB promoter activity; S100P 10 nM): 5400 photons/sec
- NFκB promoter activity, mean (NFκB promoter activity; S100P 10 nM): 8758 photons/sec
- NFκB promoter activity, difference versus 0 nM (NFκB promoter activity; S100P 100 nM): 11100 photons/sec
- NFκB promoter activity, mean (NFκB promoter activity; S100P 100 nM): 14460 photons/sec
